Test results from US9993554B2 (CENTRO NACIONAL DE INVESTIGACIONES ONCOLOGICAS (CNIO), priority 2010, dated 2018).

Key:
[1] = tested on: brown adipose tissue (BAT) of C57BL6 mice; assay: In vivo inhibition of PI3K: mRNA levels in BAT; settings: 15 mg/kg by gavage, 6 h, C57BL6 males
Experimental: For in vitro assays Compound A was added at a concentration of 1 μM. For in vivo assays, Compound A″ was administered orally by gavage at a dose of 15 mg/kg. Mice were sacrificed 6 h after and tissues were extracted and analyzed. Treated mice were C57BL6 males, 3 months old.
Total RNA from tissues or fibroblasts was extracted using TRIZOL (Invitrogen). Reverse transcription was performed using random primers and Ready-To-Go™ You-Prime First-Strand Beads (GE Healthcare). Quantitative real time-PCR was performed using DNA Master Sybr Green I mix (Applied Biosystems) in an ABI PRISM 7700 thermocycler (Applied Biosystem). Primer sequences are described in Supp.

[2] = tested on: 282 additional kinases including mTOR and DNAPK; assay: Inhibition of additional kinases (panel); type: biochemical

IC50 [2]: < 1000 nM
Structure (SMILES): CS(=O)(=O)N1CCN(Cc2cn3c(Cl)c(-c4cnc(N)nc4)nc(N4CCOCC4)c3n2)CC1 [Compound A]
Lcad mRNA in the BAT [1]: significant upregulation
Pgc1a mRNA in the BAT [1]: significant upregulation
Ucp1 mRNA in the BAT [1]: significant upregulation
